Values quoted from earlier work as cited in PMC7395068, “The evolution of strategies to minimise the risk of human drug-induced liver injury (DILI) in drug discovery and development” (Archives of Toxicology, 2020).
Like-named read-outs stand apart in the source and are kept apart here.

Conditions: cited from earlier work
[1] = binary in vivo DILI call given beside the severity category, ref Chen 2016
[2] = human DILI concern category (LTKB DILIrank), ref Chen 2016
[3] = binary in vivo human DILI call, ref Chen 2016
[4] = human DILI, LTKB DILIrank category, ref Chen 2016
[5] = LTKB DILIrank category, ref Chen 2016
[6] = binary human DILI assignment, ref Chen 2016

Molecule | DILI +VE (5-8), DILI -VE (-4) [1] | DILI severity category [2] | DILI +VE (5-8), DILI -VE (-4) (in vivo) | other results
C[C@@H]1[C@H](O)[C@@H](C)/C=C/C=C/CC/C=C/C=C/C=C/C=C/C(O[C@H]2O[C@H](C)[C@@H](O)[C@H](N)[C@@H]2O)CC2O[C@](O)(CC(O)C(O)CCC(O)CC(O)CC(O)CC(=O)O[C@H]1C)CC(O)C2C(=O)O (some centres unmarked) [nystatin] | -VE | vNo-DILI-Concern | – | –
Clc1ccc2nsnc2c1NC1=NCCN1 [tizanidine] | – | – | +VE | DILI severity category (in vivo): vMost-DILI-Concern
basiliximab | – | – | -VE | DILI severity category (in vivo): vNo-DILI-Concern
Nc1cccc2c1CN(C1CCC(=O)NC1=O)C2=O (centres unmarked) [lenalidomide] | – | – | – | DILI +VE (5-8), DILI -VE (-4) [3]: +VE; DILI severity category [4]: vLess-DILI-Concern
vitamin e | – | – | -VE | –
colistimethate | – | – | -VE | DILI severity category (in vivo): vNo-DILI-Concern
CN1CCN(C(=O)O[C@H]2c3nccnc3C(=O)N2c2ccc(Cl)cn2)CC1 [eszopiclone] | – | – | – | DILI +VE (5-8), DILI -VE (-4) [3]: -VE; DILI severity category [4]: Ambiguous DILI-concern
O=C(O)C[C@H](O)C[C@H](O)/C=C/c1c(C2CC2)nc2ccccc2c1-c1ccc(F)cc1 [pitavastatin] | -VE | Ambiguous DILI-concern | – | –
N[C@@H](C(=O)N[C@@H]1C(=O)N2C(C(=O)O)=C(Cl)CC[C@H]12)c1ccccc1 [loracarbef] | – | – | +VE | DILI severity category (in vivo): vLess-DILI-Concern
CCC1(C)CC(=O)NC1=O (centres unmarked) [ethosuximide] | – | – | – | DILI +VE (5-8), DILI -VE (-4) [3]: -VE; DILI severity category [4]: Ambiguous DILI-concern
CCCCCCC(C)(C)c1cc(O)c2c(c1)OC(C)(C)C1CCC(=O)CC21 (centres unmarked) [nabilone] | -VE | vNo-DILI-Concern | – | –
CCc1cc(C(N)=S)ccn1 [ethionamide] | – | – | – | DILI +VE (5-8), DILI -VE (-4) [3]: +VE; DILI severity category [4]: vLess-DILI-Concern
CC(C)[C@H](N)C(=O)OCC(CO)OCn1cnc2c(=O)nc(N)[nH]c21 (some centres unmarked) [valganciclovir] | – | – | – | DILI severity category [5]: Ambiguous DILI-concern; DILI +VE (5-8), DILI -VE (-4) [6]: -VE
secretin | -VE | vNo-DILI-Concern | – | –
CO[C@H]1/C=C/O[C@@]2(C)Oc3c(C)c(O)c4c(c3C2=O)C2=NC3(CCN(CC(C)C)CC3)NC2=C(NC(=O)/C(C)=C\C=C\[C@H](C)[C@H](O)[C@@H](C)[C@@H](O)[C@@H](C)[C@H](OC(C)=O)[C@@H]1C)C4=O [rifabutin] | +VE | vLess-DILI-Concern | – | –
dalteparin sodium | – | – | +VE | DILI severity category (in vivo): vLess-DILI-Concern
c1cc(CN2CCCNCCNCCCNCC2)ccc1CN1CCCNCCNCCCNCC1 [plerixafor] | -VE | vNo-DILI-Concern | – | –
CCN(CC)CCOc1ccc(C(=C(Cl)c2ccccc2)c2ccccc2)cc1 [clomiphene] | – | – | – | DILI severity category [5]: vLess-DILI-Concern
CCC(=O)C(CC(C)N(C)C)(c1ccccc1)c1ccccc1 (centres unmarked) [methadone] | – | – | -VE | DILI severity category (in vivo): Ambiguous DILI-concern
CC[C@@H](c1cccc(O)c1)[C@@H](C)CN(C)C [tapentadol] | -VE | vNo-DILI-Concern | – | –
CN(C)CC(c1ccc(O)cc1)C1(O)CCCCC1 (centres unmarked) [desvenlafaxine] | – | – | – | DILI +VE (5-8), DILI -VE (-4) [3]: +VE; DILI severity category [4]: vLess-DILI-Concern
bevacizumab | – | – | -VE | DILI severity category (in vivo): vNo-DILI-Concern
CC(C)[C@H](N)C(=O)OCCOCn1cnc2c(=O)[nH]c(N)nc21 [valaciclovir] | – | – | – | DILI severity category [5]: vLess-DILI-Concern; DILI +VE (5-8), DILI -VE (-4) [6]: +VE
CCCN(CCC)CCc1cccc2c1CC(=O)N2 [ropinirole] | +VE | vLess-DILI-Concern | – | –
CC(N)C12CC3CC(CC(C3)C1)C2 (centres unmarked) [rimantadine] | -VE | vNo-DILI-Concern | – | –
CC(=O)NC[C@H]1CN(c2ccc(N3CCOCC3)c(F)c2)C(=O)O1 [linezolid] | – | – | +VE | DILI severity category (in vivo): vLess-DILI-Concern
COc1ccc2c(C(=O)c3ccc(Cl)cc3)c(C)n(CC(=O)O)c2c1 [clometacin] | – | – | – | DILI severity category [5]: vMost-DILI-Concern
CNC(=O)c1c(I)c(NC(C)=O)c(I)c(C(=O)O)c1I [iothalamate sodium] | – | – | – | DILI +VE (5-8), DILI -VE (-4) [3]: -VE; DILI severity category [4]: vNo-DILI-Concern
